Results reported in BindingDB's records for doi:10.1016/0960-894X(96)00069-8 (1996).

Molecular target: Carbonic anhydrase 2 (Homo sapiens, UniProt P00918)
Test: Kinetic constant for binding human carbonic anhydrase II ([…])
Conditions: read-out: kon (M-1-s-1)

kon: 3.61e+07 M⁻¹ s⁻¹
Structure (SMILES): NS(=O)(=O)c1ccc(C(=O)NCC(=O)O)cc1 [(4-Sulfamoyl-benzoylamino)-acetic acid]
